The results in this text go back to publication PMC4780864, “Family-wide Structural Analysis of Human Numb-Associated Protein Kinases” (Structure(London, England:1993), 2016).

The target in assay [1] is T1, BIKE (Homo sapiens, UniProt Q9NSY1, K320A/K321A).
T1 construct: gene BMP2K; BIKE38–345 (kinase domain)
Kind of assay: co-crystal structure ([…] Å); ITC; thermal shift. Type of assay: binding.

The target in assay [2] is T2, BIKE (Homo sapiens, UniProt Q9NSY1).
T2 construct: gene BMP2K; catalytic domain-containing construct
T2 sequence (Q9NSY1 whole entry, the tested form may be a part): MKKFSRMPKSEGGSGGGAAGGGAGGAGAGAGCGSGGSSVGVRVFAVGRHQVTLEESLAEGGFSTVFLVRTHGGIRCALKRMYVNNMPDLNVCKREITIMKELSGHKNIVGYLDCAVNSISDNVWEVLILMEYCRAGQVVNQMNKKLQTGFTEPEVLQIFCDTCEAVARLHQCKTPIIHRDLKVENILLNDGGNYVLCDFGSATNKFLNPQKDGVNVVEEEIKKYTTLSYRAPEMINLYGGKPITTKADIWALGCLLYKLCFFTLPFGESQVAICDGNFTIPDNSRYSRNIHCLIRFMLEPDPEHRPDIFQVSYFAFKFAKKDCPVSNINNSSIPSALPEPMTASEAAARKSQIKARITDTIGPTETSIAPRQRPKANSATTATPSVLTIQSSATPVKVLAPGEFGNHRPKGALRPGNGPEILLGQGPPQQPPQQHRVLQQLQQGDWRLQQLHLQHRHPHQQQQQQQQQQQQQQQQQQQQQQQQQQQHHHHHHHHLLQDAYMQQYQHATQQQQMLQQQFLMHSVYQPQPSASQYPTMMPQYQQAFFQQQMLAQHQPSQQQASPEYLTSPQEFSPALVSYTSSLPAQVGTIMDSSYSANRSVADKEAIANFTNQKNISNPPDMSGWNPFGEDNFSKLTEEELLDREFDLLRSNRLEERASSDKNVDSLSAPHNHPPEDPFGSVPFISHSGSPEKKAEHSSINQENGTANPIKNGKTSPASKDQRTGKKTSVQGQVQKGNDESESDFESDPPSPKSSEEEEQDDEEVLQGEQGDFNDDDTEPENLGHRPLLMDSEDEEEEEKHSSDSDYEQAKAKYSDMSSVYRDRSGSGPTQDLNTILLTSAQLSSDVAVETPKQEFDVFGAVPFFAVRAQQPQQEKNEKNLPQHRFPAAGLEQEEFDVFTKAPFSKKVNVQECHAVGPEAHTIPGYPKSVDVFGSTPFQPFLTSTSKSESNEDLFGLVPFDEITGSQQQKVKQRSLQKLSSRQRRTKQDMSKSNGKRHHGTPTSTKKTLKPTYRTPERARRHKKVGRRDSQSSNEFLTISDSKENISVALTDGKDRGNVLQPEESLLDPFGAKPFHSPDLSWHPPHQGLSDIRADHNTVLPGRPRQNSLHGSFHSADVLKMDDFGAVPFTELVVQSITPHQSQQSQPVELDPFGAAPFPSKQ
Description: biochemical. Further details: Thermal shift assay (DSF, SYPRO Orange), 2 uM kinase domain, mean delta Tm of triplicates versus DMSO. Conditions: read-out: BIKE. How it is done:
(§1) All measurements were performed in triplicate and mean values were reported for all compounds (Table S1). […] However, NAKs are often omitted from selectivity panels, including commercial screens.

Another assay deals with T3, GAK (Homo sapiens, UniProt O14976).
T3 construct: catalytic domain-containing construct
T3 sequence (O14976 1-1311): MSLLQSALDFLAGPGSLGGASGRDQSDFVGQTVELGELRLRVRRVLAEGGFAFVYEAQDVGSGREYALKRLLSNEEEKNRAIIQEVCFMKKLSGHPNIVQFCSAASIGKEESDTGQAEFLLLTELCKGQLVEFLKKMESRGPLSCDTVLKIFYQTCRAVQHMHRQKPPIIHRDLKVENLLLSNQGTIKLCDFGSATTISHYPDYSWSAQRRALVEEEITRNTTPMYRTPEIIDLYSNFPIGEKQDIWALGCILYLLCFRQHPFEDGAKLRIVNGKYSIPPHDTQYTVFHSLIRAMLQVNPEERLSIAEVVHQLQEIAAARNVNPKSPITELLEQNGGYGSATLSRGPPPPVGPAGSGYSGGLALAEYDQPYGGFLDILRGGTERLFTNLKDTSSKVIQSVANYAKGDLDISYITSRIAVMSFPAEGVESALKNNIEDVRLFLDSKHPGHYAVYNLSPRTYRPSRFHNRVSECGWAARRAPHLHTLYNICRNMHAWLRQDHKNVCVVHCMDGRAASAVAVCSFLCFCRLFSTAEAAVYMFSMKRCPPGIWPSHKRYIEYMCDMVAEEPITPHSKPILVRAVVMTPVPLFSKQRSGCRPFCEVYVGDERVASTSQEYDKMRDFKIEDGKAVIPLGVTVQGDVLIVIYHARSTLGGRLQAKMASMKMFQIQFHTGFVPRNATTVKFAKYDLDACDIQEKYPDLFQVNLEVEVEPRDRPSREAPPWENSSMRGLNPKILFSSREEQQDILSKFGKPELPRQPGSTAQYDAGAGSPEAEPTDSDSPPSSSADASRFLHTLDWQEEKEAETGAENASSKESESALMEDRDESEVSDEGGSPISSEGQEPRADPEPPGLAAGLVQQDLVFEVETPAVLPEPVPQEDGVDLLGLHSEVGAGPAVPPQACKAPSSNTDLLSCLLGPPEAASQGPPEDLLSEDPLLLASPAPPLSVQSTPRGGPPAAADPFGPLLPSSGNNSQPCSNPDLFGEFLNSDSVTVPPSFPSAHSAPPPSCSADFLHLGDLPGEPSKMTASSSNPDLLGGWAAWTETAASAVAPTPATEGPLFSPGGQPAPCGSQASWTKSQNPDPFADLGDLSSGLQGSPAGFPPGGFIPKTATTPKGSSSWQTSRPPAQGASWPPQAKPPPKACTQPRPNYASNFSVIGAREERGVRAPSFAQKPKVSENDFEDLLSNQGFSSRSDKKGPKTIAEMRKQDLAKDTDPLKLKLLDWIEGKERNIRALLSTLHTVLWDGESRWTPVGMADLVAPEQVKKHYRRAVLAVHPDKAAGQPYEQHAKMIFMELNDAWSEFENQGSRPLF
Description: biochemical. Further details: Thermal shift assay (DSF, SYPRO Orange), 2 uM kinase domain, mean delta Tm of triplicates versus DMSO. To be noted: read-out: GAK. The protocol:
as §1

Another assay addresses T4, MPSK1 (Homo sapiens, UniProt O75716).
T4 construct: gene STK16; catalytic domain-containing construct
Description: biochemical. Further details: Thermal shift assay (DSF, SYPRO Orange), 2 uM kinase domain, mean delta Tm of triplicates versus DMSO. To be noted: read-out: MPSK1. The protocol: as §1

Assay [3] addresses T5, AAK1 (Homo sapiens, UniProt Q2M2I8). Kind of assay: ITC; thermal shift. On the technique in general: ITC needs no label: the signal is the heat of the interaction.
The target in assay [4] is T5, AAK1. Kind of assay: biochemical. Further details: kinase domain; Thermal shift assay (DSF, SYPRO Orange), 2 uM kinase domain, mean delta Tm of triplicates versus DMSO. To be noted: read-out: AAK1. How it is done: as §1

The term Kd denotes the equilibrium constant for the complex coming apart.

T5 sequence (Q2M2I8 27-365 limits assumed): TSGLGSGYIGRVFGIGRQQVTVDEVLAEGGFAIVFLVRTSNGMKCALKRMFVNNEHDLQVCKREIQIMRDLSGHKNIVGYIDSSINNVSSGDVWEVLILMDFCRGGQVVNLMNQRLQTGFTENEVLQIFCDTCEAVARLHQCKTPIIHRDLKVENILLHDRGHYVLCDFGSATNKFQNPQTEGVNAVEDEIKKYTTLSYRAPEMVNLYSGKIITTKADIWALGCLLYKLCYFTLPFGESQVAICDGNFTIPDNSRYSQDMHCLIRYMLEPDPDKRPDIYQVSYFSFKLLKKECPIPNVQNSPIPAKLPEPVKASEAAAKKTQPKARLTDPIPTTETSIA
T4 sequence (O75716 whole entry, the tested form may be a part): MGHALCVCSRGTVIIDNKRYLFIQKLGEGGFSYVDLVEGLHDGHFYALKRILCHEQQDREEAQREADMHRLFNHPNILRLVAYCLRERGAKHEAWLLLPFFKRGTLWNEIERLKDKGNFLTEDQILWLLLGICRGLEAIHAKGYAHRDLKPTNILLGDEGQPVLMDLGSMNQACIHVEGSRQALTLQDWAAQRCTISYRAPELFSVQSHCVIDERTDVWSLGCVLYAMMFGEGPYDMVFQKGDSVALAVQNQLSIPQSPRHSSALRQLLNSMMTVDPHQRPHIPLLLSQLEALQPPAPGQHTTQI
T1 sequence (Q9NSY1 38-345 K320A/K321A): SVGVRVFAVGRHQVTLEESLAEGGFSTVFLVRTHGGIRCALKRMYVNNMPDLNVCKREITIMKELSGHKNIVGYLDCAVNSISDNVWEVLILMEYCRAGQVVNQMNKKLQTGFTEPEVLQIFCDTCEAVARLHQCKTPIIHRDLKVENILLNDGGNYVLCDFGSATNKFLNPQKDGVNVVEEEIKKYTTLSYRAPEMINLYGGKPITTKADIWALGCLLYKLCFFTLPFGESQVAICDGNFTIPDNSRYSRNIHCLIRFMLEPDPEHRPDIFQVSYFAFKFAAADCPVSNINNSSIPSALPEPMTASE

For the molecule `NC(=O)Nc1cc(-c2cccc(F)c2)sc1C(=O)N[C@H]1CCCNC1` [AZD7762], the figures for the Kd on BIKE [1] and on AAK1 [3] were 33.1 nM and 36.5 nM, respectively. Also, the ΔTm at 12.5 µM on BIKE [2] came out at 12.6 °C; on GAK it was 5.39 °C; on MPSK1, 3.46 °C; on AAK1 [4] it was 10.8 °C.
Regarding `C[C@]1(O)C[C@@H](c2nc(-c3ccc4ccc(-c5ccccc5)nc4c3)c3c(N)nccn32)C1` [Linsitinib], the ΔTm at 12.5 µM is 0.903 °C at BIKE [2], -0.6 °C on GAK, 0.73 °C on MPSK1 and 0.277 °C on AAK1 [4].
As for `Cc1ccc(C(=O)Nc2ccc(CN3CCN(C)CC3)c(C(F)(F)F)c2)cc1C#Cc1cnc2cccnn12` [Ponatinib], the ΔTm at 12.5 µM at BIKE [2] is 2.93 °C; at GAK, 13 °C; at MPSK1 it was 2.24 °C; on AAK1 [4], 2.99 °C.
For `COc1cc(OC)c(/C=C/S(=O)(=O)Cc2ccc(OC)c(NCC(=O)O)c2)c(OC)c1` [Rigosertib], in that order: 0.203 °C, -0.48 °C, 0.583 °C and 0.19 °C.
For `CO[C@@H]1[C@H](N(C)C(=O)c2ccccc2)C[C@H]2O[C@]1(C)n1c3ccccc3c3c4c(c5c6ccccc6n2c5c31)C(=O)NC4` [Midostaurin], in that order: 14.9 °C, 6.33 °C, 10.4 °C and 12.8 °C.
For `COc1cc2ncnc(Nc3ccc(F)c(Cl)c3)c2cc1NC(=O)/C=C/CN1CCCCC1` [Dacomitinib], in that order: 5.85 °C, 7.28 °C, 0.97 °C and 3.8 °C.
As to `O=C(Nc1c[nH]nc1-c1nc2ccc(CN3CCOCC3)cc2[nH]1)NC1CC1` [AT9283], the ΔTm at 12.5 µM at BIKE [2] worked out at 15.6 °C; on GAK, 4.52 °C; on MPSK1 it was 9.49 °C; on AAK1 [4], 12.1 °C.
For `Cc1ccc(NC(=O)c2ccc(CN3CCN(C)CC3)cc2)cc1Nc1nc(-c2cccnc2)cs1` [Masitinib], in that order: 0.833 °C, 1.98 °C, 0.99 °C and 0.547 °C.
Turning to `CC(C)n1nc(-c2ccc3oc(N)nc3c2)c2c(N)ncnc21` [INK128], the ΔTm at 12.5 µM at BIKE [2] stood at 0.41 °C; on GAK, 0.577 °C; on MPSK1, 1.64 °C; at AAK1 [4], 0.0667 °C.
For `C[C@H](Nc1ncnc2nc[nH]c12)c1cc2cccc(Cl)c2c(=O)n1-c1ccccc1` [IPI-145], in that order: 0.24 °C, -0.497 °C, 0.847 °C and 0.21 °C.
For `Cc1ccc(NC(=O)c2ccc(CN3CC[C@H](N(C)C)C3)c(C(F)(F)F)c2)cc1Nc1nccc(-c2cncnc2)n1` [Bafetinib], in that order: 1.1 °C, 4.57 °C, 2.51 °C and 1.07 °C.
For `COc1cc2ncnc(Nc3ccc(F)c(Cl)c3)c2cc1OCCCN1CCOCC1` [Gefitinib], in that order: 2.84 °C, 6.66 °C, 0.263 °C and 1.69 °C.
As for `CC(C)Oc1cc(Nc2nc(N[C@@H](C)c3ccc(F)cn3)ncc2Cl)n[nH]1` [AZ23], the ΔTm at 12.5 µM at BIKE [2] stood at 3.37 °C; on GAK, 3.09 °C; on MPSK1, 3.4 °C; on AAK1 [4], 1.65 °C.
For `CC(C)(C)c1cc(NC(=O)Nc2ccc(-c3cn4c(n3)sc3cc(OCCN5CCOCC5)ccc34)cc2)no1` [Quizartinib], in that order: 0.54 °C, 0.0333 °C, 0.333 °C and 0.43 °C.
In the case of `COc1cc(Nc2ncc(F)c(Nc3ccc4c(n3)NC(=O)C(C)(C)O4)n2)cc(OC)c1OC` [Tamatinib], the ΔTm at 12.5 µM worked out at 6.55 °C at BIKE [2], 3.48 °C on GAK, 14.1 °C on MPSK1 and 7 °C on AAK1 [4].
For `CNC(=O)c1cc(Oc2ccc(NC(=O)Nc3ccc(Cl)c(C(F)(F)F)c3)c(F)c2)ccn1` [Regorafenib], in that order: 0.423 °C, 5.87 °C, 0.88 °C and 1.02 °C.
For `COc1cc(OC2CCN(C)CC2)ccc1Nc1ncc2c(n1)n(C1CCCC1)c(=O)n2C` [AZ3146], in that order: 6.16 °C, 6.52 °C, 4.12 °C and 5.37 °C.
For `COc1ccc(-c2ccc3c(N4CCOC[C@@H]4C)nc(N4CCOC[C@@H]4C)nc3n2)cc1CO` [AZD8055], in that order: 0.12 °C, -0.753 °C, 0.947 °C and 0.04 °C.
